Data from the RepoRT retention time repository (doi:10.1021/acs.analchem.9b05135).

assay: RP, Waters ACQUITY UPLC BEH C18, 100 × 1 mm, 1.7 µm, -1 °C, 0.15 mL/min, estimated dead time 0.33 min; A: water + 0.1% formic acid; B: acetonitrile + 0.1% formic acid; gradient (min/%B) 0/5 8/25 14/70 20/95 23/95; conditions: stereoisomer not certain

SMILES	LC retention time
CCCC(=O)OC(CC(=O)[O-])C[N+](C)(C)C (centres undefined)	0.6 min
C[S+](CCC(N)C(=O)O)CC1OC(n2cnc3c(N)ncnc32)C(O)C1O (centres undefined)	0.6 min
Cc1cn(C2CC(O)C(CO)O2)c(=O)[nH]c1=O (centres undefined)	0.7 min
Cc1c[nH]c(=O)[nH]c1=O	0.7 min
NC(CCC(=O)NC(CS)C(=O)NCC(=O)O)C(=O)O (centres undefined)	3 min
Cc1ncccc1C(N)=O	0.7 min
CC(=O)OC(CC(=O)[O-])C[N+](C)(C)C (centres undefined)	0.7 min
CC(C)CC(N)C(=O)O (centres undefined)	0.7 min
Nc1ccnc(=O)[nH]1	4 min
NC(Cc1c[nH]c2ccccc12)C(=O)O (centres undefined)	1.2 min
Nc1ccccc1C(=O)CC(N)C(=O)O (centres undefined)	0.9 min
CS(=O)CCC(N)C(=O)O (centres undefined)	0.6 min
CC(C)(CO)C(O)C(=O)NCCC(=O)O (centres undefined)	0.7 min
CC(=O)NC(CCC(=O)O)C(=O)O (centres undefined)	0.6 min
NC(=NCCCC(N)C(=O)O)NC(CC(=O)O)C(=O)O (centres undefined)	0.6 min
NC(=O)CCC(N)C(=O)O (centres undefined)	0.8 min
NC(CCO)C(=O)O (centres undefined)	0.9 min

SMILES	LC retention time
C[N+](C)(C)CCOP(=O)(O)O	0.7 min
CC(C)C(N)C(=O)O (centres undefined)	0.7 min
CCC(=O)OC(CC(=O)[O-])C[N+](C)(C)C (centres undefined)	0.6 min
CC(=O)NC1C(OP(=O)(O)OP(=O)(O)OCC2OC(n3ccc(=O)[nH]c3=O)C(O)C2O)OC(CO)C(O)C1O (centres undefined)	0.7 min
C[N+](C)(C)CCO	0.6 min
CC(N)C(=O)O (centres undefined)	0.7 min
NC(COP(=O)(O)O)C(=O)O (centres undefined)	0.6 min
CC(C)CC(=O)OC(CC(=O)[O-])C[N+](C)(C)C (centres undefined)	0.7 min
CC(=O)NC(CCC(N)=O)C(=O)O (centres undefined)	0.6 min
CC(C(=O)O)C(O)(CC(=O)O)C(=O)O (centres undefined)	4.3 min
CNCC(=O)O	0.7 min
CSCCC(NC(C)=O)C(=O)O (centres undefined)	0.6 min
Cc1cn(C2CC(O)C(COP(=O)(O)O)O2)c(=O)[nH]c1=O (centres undefined)	1.2 min
CSCC1OC(n2cnc3c(N)ncnc32)C(O)C1O (centres undefined)	0.7 min
C[N+](C)(C)CC(O)CC(=O)[O-] (centres undefined)	0.7 min
NC(=O)NCCCC(N)C(=O)O (centres undefined)	0.5 min
NC(=O)c1cccnc1	0.8 min
